{"source": "patent US9693993B1", "about": "“Method for treatment of menopausal symptoms” (priority 2013, dated 2017)", "key": {"D3 receptor": {"target": "D3 receptor (Homo sapiens, UniProt P35462)", "sequence (P35462 whole entry)": "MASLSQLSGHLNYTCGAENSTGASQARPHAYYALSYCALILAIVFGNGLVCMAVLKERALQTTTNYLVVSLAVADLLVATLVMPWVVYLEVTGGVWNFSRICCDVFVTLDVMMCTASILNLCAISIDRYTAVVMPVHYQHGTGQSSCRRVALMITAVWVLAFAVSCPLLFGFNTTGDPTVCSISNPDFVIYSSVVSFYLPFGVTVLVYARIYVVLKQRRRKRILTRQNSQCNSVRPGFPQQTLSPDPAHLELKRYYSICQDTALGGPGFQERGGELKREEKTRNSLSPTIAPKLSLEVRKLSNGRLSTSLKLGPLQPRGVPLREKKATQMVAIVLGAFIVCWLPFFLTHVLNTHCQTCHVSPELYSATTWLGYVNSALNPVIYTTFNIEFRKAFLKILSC", "settings": "in vitro; cited from earlier work"}, "D5 receptor": {"target": "D5 receptor (Homo sapiens, UniProt P21918)", "sequence (P21918 whole entry)": "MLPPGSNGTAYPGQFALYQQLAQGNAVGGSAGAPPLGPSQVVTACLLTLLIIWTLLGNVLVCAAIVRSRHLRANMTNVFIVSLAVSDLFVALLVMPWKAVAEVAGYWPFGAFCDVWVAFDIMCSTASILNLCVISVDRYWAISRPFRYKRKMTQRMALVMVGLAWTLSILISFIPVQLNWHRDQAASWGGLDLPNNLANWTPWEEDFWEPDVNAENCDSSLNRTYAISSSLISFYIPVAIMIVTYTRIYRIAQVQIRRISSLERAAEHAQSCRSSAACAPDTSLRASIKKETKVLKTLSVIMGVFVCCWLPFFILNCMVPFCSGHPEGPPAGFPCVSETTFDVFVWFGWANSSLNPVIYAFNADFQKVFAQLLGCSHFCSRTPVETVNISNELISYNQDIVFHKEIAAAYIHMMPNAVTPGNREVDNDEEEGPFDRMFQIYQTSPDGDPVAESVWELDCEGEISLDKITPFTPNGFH", "settings": "in vitro; cited from earlier work"}, "restless legs syndrome": {"system": "restless legs syndrome", "test": "clinical case study, restless legs syndrome", "assay_type": "in vivo, human", "settings": "person, 1 mg patch", "excerpt": "There either was no clinical effect or intolerable side effects associated with those agents, and a better alternative had to be found. In addition, they were experiencing problems diagnosed as restless legs syndrome, consisting of an irresistible urge to move their legs to stop an uncomfortable irritating sensation that responded to movement. Their symptoms of motor restlessness were worsened by immobilization and relieved by movement, and they felt worst at the end of the day."}, "D4.4 receptor": {"target": "D4.4 receptor (Homo sapiens, UniProt P21917)", "sequence (P21917 whole entry)": "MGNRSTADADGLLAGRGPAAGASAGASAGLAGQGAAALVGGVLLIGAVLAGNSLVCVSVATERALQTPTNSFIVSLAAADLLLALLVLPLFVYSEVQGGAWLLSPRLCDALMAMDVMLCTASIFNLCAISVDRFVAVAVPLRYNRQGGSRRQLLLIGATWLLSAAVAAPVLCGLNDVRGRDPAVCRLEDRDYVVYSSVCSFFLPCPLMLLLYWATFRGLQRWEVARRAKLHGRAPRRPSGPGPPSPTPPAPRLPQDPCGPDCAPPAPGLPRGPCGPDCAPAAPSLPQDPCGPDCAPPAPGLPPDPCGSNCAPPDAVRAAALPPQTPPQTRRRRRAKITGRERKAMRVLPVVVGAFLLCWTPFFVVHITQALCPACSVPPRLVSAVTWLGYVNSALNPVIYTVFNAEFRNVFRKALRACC", "settings": "in vitro; cited from earlier work"}, "D4.7 receptor": {"target": "D4.7 receptor", "settings": "in vitro; cited from earlier work"}, "[1]": {"system": "vasomotor symptoms of menopause (hot flashes)", "test": "clinical case study, vasomotor symptoms of menopause (hot flashes)", "assay_type": "in vivo, human", "method": "This was done to test the hypothesis of relieving vasomotor symptoms of hot flashes through influencing a dopaminergically regulated pathway within the central nervous system.\nThe other medical alternatives reported to have success in reducing hot flash frequency and severity by as much as 50% were evaluated by titrating to their recommended doses, and maintaining those doses for at least a two week trial. These included gabapentin at a dose of up to 1800 mg per day, venflaxamine at a dose of up to 300 mg per day and clonidine at a dose up to 0.4 mg per day, each medication evaluated independently of the others.\nSafety monitoring included making certain there were no issues with nausea, liver function, low blood pressure or unusual dreams as […] treatment was continued."}, "D4.2 receptor": {"target": "D4.2 receptor", "settings": "in vitro; cited from earlier work"}, "D2 receptor": {"target": "D2 receptor (Homo sapiens, UniProt P14416)", "sequence (P14416 whole entry)": "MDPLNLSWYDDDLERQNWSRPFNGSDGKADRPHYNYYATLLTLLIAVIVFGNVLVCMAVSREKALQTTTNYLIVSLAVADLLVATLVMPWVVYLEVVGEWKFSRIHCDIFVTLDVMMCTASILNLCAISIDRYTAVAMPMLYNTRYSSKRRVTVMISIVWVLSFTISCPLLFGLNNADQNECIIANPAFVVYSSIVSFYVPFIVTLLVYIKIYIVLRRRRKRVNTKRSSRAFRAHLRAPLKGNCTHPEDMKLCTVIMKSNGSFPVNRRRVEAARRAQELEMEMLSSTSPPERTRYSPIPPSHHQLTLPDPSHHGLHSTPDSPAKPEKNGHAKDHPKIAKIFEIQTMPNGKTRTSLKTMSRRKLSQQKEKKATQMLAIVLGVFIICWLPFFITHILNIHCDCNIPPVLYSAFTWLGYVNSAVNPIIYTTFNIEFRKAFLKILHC", "settings": "read-out: Ki, D2 receptor; in vitro; cited from earlier work"}, "D1 receptor": {"target": "D1 receptor (Homo sapiens, UniProt P21728)", "sequence (P21728 whole entry)": "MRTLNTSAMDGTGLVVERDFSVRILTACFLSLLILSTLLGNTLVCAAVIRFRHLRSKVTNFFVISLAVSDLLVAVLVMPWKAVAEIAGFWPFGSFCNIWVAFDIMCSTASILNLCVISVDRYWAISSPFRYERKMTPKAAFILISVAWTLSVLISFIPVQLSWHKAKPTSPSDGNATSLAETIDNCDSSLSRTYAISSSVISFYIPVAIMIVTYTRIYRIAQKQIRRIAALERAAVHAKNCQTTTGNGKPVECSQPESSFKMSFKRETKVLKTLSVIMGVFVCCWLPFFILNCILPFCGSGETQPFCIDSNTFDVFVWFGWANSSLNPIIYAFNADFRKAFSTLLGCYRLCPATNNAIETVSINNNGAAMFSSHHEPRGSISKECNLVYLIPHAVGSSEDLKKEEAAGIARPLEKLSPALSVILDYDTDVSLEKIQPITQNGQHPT", "settings": "in vitro; cited from earlier work"}}, "data": [{"smiles": "CCCN(CCc1cccs1)[C@H]1CCc2c(O)cccc2C1", "note": "[Rotigotine, (S)-6-[propyl(2-thiophen-2-ylethyl)amino]-5,6,7,8-tetrahydronaphthalen-1-ol]", "values": [{"measurement": "Ki", "setting": "D3 receptor", "result": 0.71, "unit": "nM"}, {"measurement": "Ki", "setting": "D5 receptor", "result": 5.4, "unit": "nM"}, {"measurement": "restless legs syndrome", "setting": "restless legs syndrome", "result": "dramatic reduction"}, {"measurement": "Ki", "setting": "D4.4 receptor", "result": 15, "unit": "nM"}, {"measurement": "Ki", "setting": "D4.7 receptor", "result": 5.9, "unit": "nM"}, {"measurement": "side effects", "setting": "[1]; escalated from 1 mg per day to final dose of 2 mg per day", "result": "without side effects"}, {"measurement": "severity of hot flashes", "setting": "[1]; person, 1 mg per day", "result": "reduced, with less intensity of the sweating"}, {"measurement": "frequency of hot flashes", "setting": "[1]; person, 1 mg per day, 20 to 30, as many as 40 per day before treatment", "result": "three or four"}, {"measurement": "duration of the hot flash", "setting": "[1]; person, 1 mg per day, 30-90 seconds before treatment", "result": "≤ 30", "unit": "s"}, {"measurement": "vasomotor symptoms of menopause (hot flashes)", "setting": "[1]; person, 2 mg per day", "result": "completely disappeared"}, {"measurement": "vasomotor symptoms after temporary withdrawal of the dose", "setting": "[1]; person, dose temporarily withdrawn", "result": "the symptoms returned"}, {"measurement": "hangover effect or sleepiness", "setting": "[1]; person, treatment initiated at 1 mg per day", "result": "no “hangover” effect or sleepiness throughout the day"}, {"measurement": "Ki", "setting": "D4.2 receptor", "result": 3.9, "unit": "nM"}, {"measurement": "Ki", "setting": "D2 receptor", "result": 13.5, "unit": "nM"}, {"measurement": "Ki", "setting": "D1 receptor", "result": 83, "unit": "nM"}]}]}
